In brackets after ≈: the same amount, converted by molar mass.
Columns and labels:
[1] = Metabolic stability in mouse microsomes assessed as compound remaining measured after 2 hrs; format: ADME, Microsome; conditions: read-out: Stability
[2] = AUC(0 to 24 hrs) in CD-1 mouse at 20 mg/kg, po administered as DMSO/PEG400 formulation measured upto 24 hrs by LC-MS/MS analysis; format: ADME, organism-based; design: dose 20 mg/kg, time < 24 hrs, route po; conditions: in vivo
[3] = Metabolic stability in human microsomes assessed as compound remaining measured after 2 hrs; format: ADME, Microsome; conditions: read-out: Stability
[4] = tested on: Trypanosoma cruzi; experiment: Antitrypanosomal activity against Trypanosoma cruzi Tulahuen amastigotes infected in mouse 3T3 cells assessed as reduction in parasite growth at Emax concentration incubated for 48 hrs by […] staining based analysis; format: functional; design: scale not given: the % may be the effect or the level left
[5] = tested on: Mycobacterium tuberculosis; experiment: Antimycobacterial activity against Mycobacterium tuberculosis H37Ra ATCC 25177 assessed as bacterial growth inhibition incubated for 6 days under normoxic condition by resazurin microtiter assay; format: functional; conditions: H37Ra ATCC 25177, 144 h, time 6 day
[6] = Solubility of compound in water by LC-UV analysis; format: physicochemical; conditions: water; read-out: solubility
[7] = tested on: Mycobacterium avium; experiment: Antimycobacterial activity against Mycobacterium avium ATCC 25291 assessed as bacterial growth inhibition incubated for 6 days under normoxic condition by resazurin microtiter assay; format: functional; conditions: ATCC 25291, 144 h, time 6 day
[8] = tested on: Trypanosoma cruzi; experiment: Antitrypanosomal activity against Trypanosoma cruzi Tulahuen amastigotes infected in mouse 3T3 cells assessed as inhibition of parasite growth incubated for 48 hrs by […] staining based analysis; format: functional, organism-based; conditions: for IC90: NIH3T3, time 48 hrs
[9] = Half life in CD-1 mouse at 5 mg/kg, iv administered as DMSO/PEG400 formulation measured upto 24 hrs by LC-MS/MS analysis; format: ADME, organism-based; conditions: in vivo
[10] = Plasma protein binding in mouse; format: ADME, cell-free; conditions: read-out: PPB (converted)
[11] = Toxicity in BALB/c mouse infected with Mycobacterium tuberculosis assessed as body weight loss at 12.5 to 50 mg/kg, po administered 5 days per week for 3 weeks starting from day 10 post infection; format: organism-based; conditions: in vivo, 120 h, dose 12.5-50 mg/kg, time 5 day
[12] = Cmax in CD-1 mouse at 20 mg/kg, po administered as DMSO/PEG400 formulation measured upto 24 hrs by LC-MS/MS analysis; format: ADME, organism-based; design: dose 20 mg/kg, time < 24 hrs, route po; conditions: in vivo
[13] = Solubility of compound in water at 0.1 M HCl at pH 1 by LC-UV analysis; format: physicochemical; conditions: 0.1 M HCl in water
[14] = Tmax in CD-1 mouse at 20 mg/kg, po administered as DMSO/PEG400 formulation measured upto 24 hrs by LC-MS/MS analysis; format: ADME, organism-based; conditions: in vivo
[15] = Clearance in CD-1 mouse at 5 mg/kg, iv administered as DMSO/PEG400 formulation measured upto 24 hrs by LC-MS/MS analysis; format: ADME, organism-based; conditions: in vivo
[16] = Cytotoxicity against mouse 3T3 cells; format: toxicity, cell-based; conditions: NIH3T3 cells
[17] = Solubility of compound in water at pH 7 by LC-UV analysis; format: physicochemical
[18] = Volume of distribution at steady state in CD-1 mouse at 5 mg/kg, iv administered as DMSO/PEG400 formulation measured upto 24 hrs by LC-MS/MS analysis; format: ADME, organism-based; conditions: in vivo, read-out: Vdss
[19] = Plasma protein binding in human; format: ADME, cell-free; conditions: read-out: PPB (converted)
[20] = Toxicity in BALB/c mouse infected with Mycobacterium tuberculosis assessed as mortality at 12.5 to 50 mg/kg, po administered 5 days per week for 3 weeks starting from day 10 post infection; format: organism-based; conditions: in vivo, 504 h, dose 12.5-50 mg/kg
[21] = Stability in human plasma assessed as compound remaining measured after 2 hrs; format: ADME, cell-free; conditions: read-out: Stability
[22] = Oral bioavailability in CD-1 mouse at 20 mg/kg administered as DMSO/PEG400 formulation measured upto 24 hrs by LC-MS/MS analysis; format: ADME, organism-based; conditions: in vivo
[23] = Half life in CD-1 mouse at 20 mg/kg, po administered as DMSO/PEG400 formulation measured upto 24 hrs by LC-MS/MS analysis; format: ADME, organism-based; conditions: in vivo
[24] = tested on: Mycobacterium tuberculosis; experiment: Antimycobacterial activity against Mycobacterium tuberculosis infected in BALB/c mouse assessed as log reduction in bacterial load in lung by measuring colony forming unit at 12.5 to 50 mg/kg, po administered 5 days per week for 3 weeks starting from day 10 post infection (reference value: 8.8 x 10^3 CFU); format: functional; conditions: dose 12.5-50 mg/kg
[25] = Stability in mouse plasma assessed as compound remaining measured after 2 hrs; format: ADME, cell-free; conditions: read-out: Stability
[26] = tested on: Mycolicibacterium smegmatis; experiment: Antimycobacterial activity against Mycobacterium smegmatis mc2155 ATCC 700084 assessed as bacterial growth inhibition incubated for 24 hrs under normoxic condition by resazurin microtiter assay; format: functional
[27] = tested on: Mycobacterium tuberculosis; experiment: Antimycobacterial activity against Mycobacterium tuberculosis infected in BALB/c mouse assessed as log reduction in bacterial load in lung by measuring colony forming unit at 15 mg/kg, po administered 5 days per week for 3 weeks starting from day 10 post infection (reference value: 8.8 x 10^3 CFU); format: functional
[28] = tested on: Mycobacterium tuberculosis; experiment: Antimycobacterial activity against Mycobacterium tuberculosis H37Rv ATCC 27294 assessed as bacterial growth inhibition incubated for 5 days under normoxic condition by resazurin microtiter assay; format: functional; conditions: H37Rv ATCC 27294, 120 h, time 5 day
[29] = tested on: Mycobacterium tuberculosis; experiment: Antimycobacterial activity against Mycobacterium tuberculosis H37Rv ATCC 27294 assessed as bacterial growth inhibition incubated for 5 days under hypoxic condition by resazurin microtiter assay; format: functional; conditions: H37Rv ATCC 27294, 120 h, time 5 day
[30] = tested on: Trypanosoma cruzi; experiment: Antitrypanosomal activity against bioluminescent Trypanosoma cruzi CL Brener trypomastigotes infected in BALB/c mouse assessed as reduction in parasite burden at 50 mg/kg, po administered twice daily for 5 days starting from 14 days post infection and measured on 36 days post infection; format: functional; design: scale not given: the % may be the effect or the level left; conditions: time 22 day
[31] = tested on: Trypanosoma cruzi; experiment: Antitrypanosomal activity against bioluminescent Trypanosoma cruzi CL Brener trypomastigotes infected in BALB/c mouse assessed as reduction in parasite burden at 100 mg/kg, po administered once daily for 5 days starting from 14 days post infection and measured on 36 days post infection; format: functional; design: scale not given: the % may be the effect or the level left; conditions: time 22 day
[32] = Selectivity index, ratio of CC50 for cytotoxicity against mouse 3T3 cells to IC50 for antitrypanosomal activity against Trypanosoma cruzi Tulahuen amastigotes infected in mouse 3T3 cells; format: toxicity, cell-based; conditions: read-out: Ratio CC50/IC50
[33] = tested on: Mycobacterium tuberculosis; experiment: Substrate activity at Mycobacterium tuberculosis Ddn expressed in Escherichia coli BL21 (DE3) assessed as oxidation of F420H2 by measuring Kcat by spectrophotometric analysis
[34] = tested on: Mycobacterium tuberculosis; experiment: Substrate activity at Mycobacterium tuberculosis Ddn expressed in Escherichia coli BL21 (DE3) assessed as oxidation of F420H2 by measuring Kcat/Km by spectrophotometric analysis
[35] = tested on: Mycobacterium tuberculosis; experiment: Substrate activity at Mycobacterium tuberculosis Ddn expressed in Escherichia coli BL21 (DE3) assessed as oxidation of F420H2 by measuring Km by spectrophotometric analysis
[36] = tested on: Mycobacterium tuberculosis; experiment: Antimycobacterial activity against Mycobacterium tuberculosis infected in BALB/c mouse assessed as log reduction in bacterial load in lung by measuring colony forming unit at 12.5 mg/kg, po administered 5 days per week for 3 weeks starting from day 10 post infection (reference value: 8.8 x 10^3 CFU); format: functional
[37] = AUC(0 to 8 hrs) in CD-1 mouse at 20 mg/kg, po administered as DMSO/PEG400 formulation measured upto 24 hrs by LC-MS/MS analysis; format: ADME, organism-based; design: dose 20 mg/kg, time < 24 hrs, route po; conditions: in vivo
[38] = tested on: Mycobacterium tuberculosis; experiment: Antimycobacterial activity against Mycobacterium tuberculosis infected in BALB/c mouse assessed as log reduction in bacterial load in lung by measuring colony forming unit at 25 mg/kg, po administered 5 days per week for 3 weeks starting from day 10 post infection (reference value: 8.8 x 10^3 CFU); format: functional
[39] = tested on: Mycobacterium tuberculosis; experiment: Antimycobacterial activity against Mycobacterium tuberculosis infected in BALB/c mouse assessed as log reduction in bacterial load in lung by measuring colony forming unit at 50 mg/kg, po administered 5 days per week for 3 weeks starting from day 10 post infection (reference value: 8.8 x 10^3 CFU); format: functional

| SMILES | AUC(0-t) at 24 h [2] [ng·h/mL] | Activity [4] [%] | MIC [5] [µg/mL] | solubility [6] [µM] | MIC [7] [µg/mL] | IC90 [8] [µM] | half-life [9] [h] | fraction unbound [10] | Activity [11] | Cmax [12] [ng/mL] | Tmax [14] [h] | clearance [15] [mL/min/kg] | CC50 [16] [µM] | Vd [18] [L/kg] | fraction unbound [19] | Activity [20] | bioavailability [22] [%] | half-life [23] [h] | MIC [26] [µg/mL] | MIC [28] [µg/mL] | also measured |
| --- | --- | --- | --- | --- | --- | --- | --- | --- | --- | --- | --- | --- | --- | --- | --- | --- | --- | --- | --- | --- | --- |
| O=c1c2nc([N+](=O)[O-])cn2ccn1Cc1ccc(OC(F)(F)F)cc1 | 38900 | 100 | 0.031 (≈ 0.0875 µM) | < 1 | > 32 | 0.72 | 3.8 | < 0.01 | Non-Toxic | 3300 | 5.3 | 6.36 | > 73 | 2.2 | < 0.01 | Non-Toxic | 98 | 4.8 | > 32 |  | remaining at 2 h [1]: > 99%; remaining at 2 h [3]: > 99%; solubility [13]: < 1 µM; solubility [17]: < 1 µM; remaining at 2 h [21]: 98%; log(activity) [24]: 0.21; remaining at 2 h [25]: > 99% |
| CO[C@H]1/C=C/O[C@@]2(C)Oc3c(C)c(O)c4c(O)c(c(/C=N/N5CCN(C)CC5)c(O)c4c3C2=O)NC(=O)/C(C)=C\C=C\[C@H](C)[C@H](O)[C@@H](C)[C@@H](O)[C@@H](C)[C@H](OC(C)=O)[C@@H]1C [RIFAMPIN] |  |  | < 0.016 |  | 4 (≈ 4.86 µM) |  |  |  |  |  |  |  |  |  |  |  |  |  | 4 (≈ 4.86 µM) | 0.005 (≈ 0.00608 µM) | log(activity) [27]: 2.7; MIC [29]: 0.08 µg/mL (≈ 0.0972 µM) |
| O=c1c2nc([N+](=O)[O-])cn2ccn1Cc1ccc(-c2cccnc2)cc1 | 9260 |  |  |  |  |  | 1.5 |  |  | 4500 | 0.67 | 22.9 |  | 2.6 |  |  | 92 | 0.77 |  |  | Activity [30]: 99.4% |
| O=C(Cn1ccnc1[N+](=O)[O-])NCc1ccccc1 [BENZNIDAZOLE] |  | 100 |  |  |  | 28 |  |  |  |  |  |  | > 127 |  |  |  |  |  |  |  | Activity [31]: 99.3%; IC50 ([8]; NIH3T3, 48 h): 7.6 µM; selectivity ratio [32]: > 17 |
| O=c1c2nc([N+](=O)[O-])cn2ccn1Cc1cccc(C(F)(F)F)c1 |  |  | ≤ 0.016 | 2.9 (≈ 0.981 µg/mL) | > 32 |  | 1.9 | 0.08 | Non-Toxic | 3400 | 2.7 | 7.66 |  | 1.2 | 0.04 | Non-Toxic | 64 |  | > 32 | 0.063 (≈ 0.186 µM) | kcat [33]: 1.6 10^-2/s; kcat/Km [34]: 1650 M⁻¹ s⁻¹; Km [35]: 9.4 µM; log(activity) [36]: 0.75; MIC [29]: 0.25 µg/mL (≈ 0.739 µM); AUC(0-t) at 24 h [37]: 20800 ng·h/mL; log(activity) [38]: 1.1; log(activity) [39]: 1.7 |
